The values below come from US20120295920A1, “5-AMINO-4-HYDROXYPENTOYL AMIDES” (priority 2009, published 2012).

Data set [1] in a line: General toxicity assay on mock-infected MT4 cells with CMV-EGFP reporter (CC50). As to conditions: human. The format is cell-based.
In a further data set the test system is HIV-1 IIIB. Put plainly: 50% HS-Rezazurin: antiviral assay in the presence of 50% human serum, MT-4 cells, resazurin cell viability. Type of data set: cell-based. The note with it: Human immunodeficiency virus 1, IIIB, MT4, 96 h. In short, it runs like this:
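MT-4 cells infected with HIV-1 IIIB (MOI 0.001 to 0.01 CCID50/cell) for 1 h, washed, then plated onto serial compound dilutions in 50% human serum (10% FCS alternative). After 4 days, EC50 derived from resazurin cell viability.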

A further data set has as its system HIV-1 wild-type strain. Kind of data set: General antiviral assay, cell-based virus replication in MT4-LTR-EGFP cells, wild-type strain. As to conditions: Human immunodeficiency virus 1; wild-type strain IIIB, MT4-LTR-EGFP cells. In short, it runs like this: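 HIV LTR-driven EGFP reporter MT4 cells (150,000 cells/ml) infected at MOI 0.0025 with or without inhibitor at various concentrations. Read-out either GFP fluorescence on day 3 post-infection or resazurin cell viability on day 4.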

In data set [2] the test system is HIV-1 Strain C (G048G/V, V082A). Put plainly: microbe, parasite or virus in culture. As to conditions: Human immunodeficiency virus 1, read-out: C EC50. The format is cell-based. An outline of the steps: (§1)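 MT4 cells stably carrying an HIV LTR-driven EGFP reporter (150,000 cells/ml) were infected at MOI 0.0025 with or without inhibitor dilutions. Replication was read either as GFP fluorescence on day 3 post-infection or as cell viability by resazurin on day 4.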

The subject of data set [3] is HIV-1 Strain B (M046I, I050V). Put plainly: microbe, parasite or virus in culture. Type of data set: cell-based. The note with it: Human immunodeficiency virus 1, read-out: B EC50. An outline of the steps:
as §1

The subject of data set [4] is HIV-1 Strain A (M046I, I084V). Kind of data set: microbe, parasite or virus in culture. Type of data set: cell-based. The note with it: Human immunodeficiency virus 1, read-out: A EC50. In short, it runs like this:
as §1

Where [5] appears, read: mock-infected MT4 cells with CMV-EGFP reporter, read-out: TOX-MT4CMV (CC50).
Setting [6] is: MT4LTR cells, read-out: TOX-MT4LTR (CC50).

Like-named read-outs stand apart in the source and are kept apart here.

Broadly, the CC50 is the concentration giving 50% cytotoxicity. Broadly, the EC50 is the concentration at which the effect is half-maximal. A word on the melting point: it is the temperature, or range, at which the solid turns liquid.

With `COC(=O)N[C@H](C(=O)N[C@@H](Cc1ccc(-c2cnc(C(C)C)s2)cc1)[C@@H](O)C[C@@H](Cc1ccccc1F)C(=O)N[C@H]1c2ccccc2OC[C@H]1O)C(C)(C)C` [Compound 38], the CC50 in data set [1] (setting [5]) was determined as 10000 nM. Also, the EC50 is 37.9 nM in the data set on HIV-1 IIIB; 7.1 nM with HIV-1 wild-type strain; 2.6 nM in data set [2]; 3.6 nM in data set [3]; 4.4 nM in data set [4].

Regarding `COC(=O)N[C@H](C(=O)N[C@@H](Cc1ccc(-c2ccc(N(C)C)nc2)cc1)[C@@H](O)C[C@@H](Cc1ccccc1F)C(=O)N[C@H]1c2cc(F)cc(Cl)c2OC[C@H]1O)C(C)(C)C` [Compound 52], the melting point amounted to 255.44 °C. Further, the CC50 in data set [1] (setting [6]) is greater than 32000 nM. The EC50 in the data set on HIV-1 IIIB is 6.2 nM. This molecule also gave an EC50 in the data set on HIV-1 wild-type strain of 1.8 nM. Moreover, the half-maximal effective concentration (EC50) in data set [2] came out at 0.7 nM. Besides, the EC50 in data set [3] stood at 0.9 nM. Besides, the EC50 in data set [4] amounted to 1.2 nM.

In the case of `CN(C)c1ccc(-c2ccc(C[C@H](NC(=O)[C@@H](NC(=O)C3(C#N)CC3)C(C)(C)C)[C@@H](O)C[C@@H](Cc3ccccc3F)C(=O)N[C@H]3c4cc(F)ccc4OC[C@H]3O)cc2)cn1` [Compound 53], the CC50 in data set [1] (setting [6]) is greater than 32000 nM. In addition, the EC50 in the data set on HIV-1 IIIB is 9.5 nM; in the data set on HIV-1 wild-type strain, 2.3 nM; in data set [2], 2 nM; in data set [3], 2 nM; in data set [4], 4.1 nM.

Consider `COC(=O)N[C@H](C(=O)N[C@@H](Cc1ccc(-c2ccc(OC)nc2)cc1)[C@@H](O)C[C@@H](Cc1cccc(OC(F)(F)F)c1)C(=O)N[C@H]1c2cc(F)ccc2OC[C@H]1O)C(C)(C)C` [Compound 64], for which the CC50 in data set [1] (setting [6]) was greater than 32000 nM. The EC50 stood at 15.1 nM in the data set with HIV-1 IIIB; 2.6 nM with HIV-1 wild-type strain; 1.3 nM in data set [2]; 1.6 nM in data set [3]; 3 nM in data set [4].

On to `CN(C)c1ccc(-c2ccc(C[C@H](NC(=O)O[C@H]3CO[C@H]4OCC[C@H]43)[C@@H](O)C[C@@H](Cc3ccccc3F)C(=O)N[C@H]3c4cc(Cl)ccc4OC[C@H]3O)cc2)cn1` [Compound 79], for which the half-maximal cytotoxic concentration (CC50) in data set [1] (setting [6]) is greater than 32000 nM. In addition, the EC50 in the data set on HIV-1 IIIB stood at 12.8 nM; with HIV-1 wild-type strain it was 1.7 nM; in data set [2], 0.7 nM; in data set [3] it was 1 nM; in data set [4], 1.1 nM.

Consider `CNC(=O)[C@@H](NC(=O)[C@H](Cc1ccccc1F)C[C@H](O)[C@H](Cc1ccc(-c2ccc(N(C)C)nc2)cc1)NC(=O)[C@@H](NC(=O)OC)C(C)(C)C)C(C)(C)C` [Compound 90], for which, in data set [1] (setting [5]), the CC50 was greater than 32000 nM. Further, the EC50 in the data set on HIV-1 IIIB came to 13.6 nM; in the data set with HIV-1 wild-type strain it was 4.7 nM; in data set [2] it was 2.8 nM; in data set [3], 2.6 nM; in data set [4], 4.8 nM.

In the case of `COC(=O)N[C@H](C(=O)N[C@@H](Cc1ccc(-c2ccc(OC)nc2)cc1)[C@@H](O)C[C@@H](Cc1ccccc1F)C(=O)N[C@H]1c2ccsc2CC[C@H]1O)C(C)(C)C` [Compound 93], the CC50 in data set [1] (setting [6]) and in data set [1] (setting [5]) was greater than 32000 nM in each case. Moreover, the EC50 worked out at 3.5 nM in the data set with HIV-1 IIIB; 1.3 nM in the data set on HIV-1 wild-type strain; 0.4 nM in data set [2]; 0.6 nM in data set [3]; 0.8 nM in data set [4].

In the case of `COC(=O)N[C@H](C(=O)N[C@@H](Cc1ccc(-c2ccc(OC)nc2)cc1)[C@@H](O)C[C@@H](Cc1ccccc1F)C(=O)N[C@H]1[C@H](C)CCC[C@H]1O)C(C)(C)C` [Compound 96], the CC50 in data set [1] (setting [6]) is greater than 32000 nM. The EC50 in the data set with HIV-1 IIIB came out at 2 nM; in the data set on HIV-1 wild-type strain it was 0.9 nM; in data set [2], 0.5 nM; in data set [3], 0.4 nM; in data set [4] it was 0.7 nM.
